Results from patent US12344600B2, “c-Myc mRNA translation modulators and uses thereof in the treatment of cancer” (Anima Biotech Inc., priority 2022, dated 2025).

system: c-Myc; experiment: c-Myc immunofluorescence assay; assay type: cell-based, human; conditions: A549 cells, 24 hours, anti-c-Myc immunofluorescence
Summary of the method: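 A549 NSCLC cells grown 48 h, then treated 24 h with increasing compound concentrations; fixed in 4% paraformaldehyde, stained with anti-c-Myc antibody plus fluorescent secondary and DAPI. Per-cell c-Myc fluorescence quantified by high-content imaging at 20×; dose-response fitted by logistic regression to give EC50.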

Row | SMILES | Myc Efficacy (−LogEC50)
1 | COc1ccc(-c2noc(N3CCC(C(=O)Nc4ccc(C5COC5)cc4)CC3)n2)cc1 [Compound 306, 1-(3-(4-methoxyphenyl)-1,2,4-oxadiazol-5-yl)-N-(4-(oxetan-3-yl)phenyl)piperidine-4-carboxamide] | + (+ >3 and <5)
2 | COc1ccc(-c2noc(C3CCC(C(=O)NCC4CCN(Cc5ccccc5)C4)CC3)n2)cc1 (stereo not shown) [Compound 174, (1r,4r)-N-((1-benzylpyrrolidin-3-yl)methyl)-4-(3-(4-methoxyphenyl)-1,2,4-oxadiazol-5-yl)cyclohexane-1-carboxamide] | ++ (++ ≥5 and <6)
3 | COc1ccc(-c2noc(N3CCN(C(=O)Nc4ccccc4Cl)CC3)n2)cc1 [Compound 195, N-(2-chlorophenyl)-4-(3-(4-methoxyphenyl)-1,2,4-oxadiazol-5-yl)piperazine-1-carboxamide] | + (+ >3 and <5)
4 | COc1ccc(-c2noc(N3CCC(C(=O)NCC4CCN(C[C@H]5CCCN(C)C5)C4)CC3)n2)cc1 (stereo partly drawn) [Compound 422, 1-(3-(4-methoxyphenyl)-1,2,4-oxadiazol-5-yl)-N-((1-(((S)-1-methylpiperidin-3-yl)methyl)pyrrolidin-3-yl)methyl)piperidine-4-carboxamide] | ++ (++ ≥5 and <6)
5 | COc1ccc(-c2noc(N3CCC(C(=O)Nc4cc(Cl)c(Cl)cn4)CC3)n2)cc1 [Compound 319, N-(4,5-dichloropyridin-2-yl)-1-(3-(4-methoxyphenyl)-1,2,4-oxadiazol-5-yl)piperidine-4-carboxamide] | + (+ >3 and <5)
6 | CN1CCC[C@H](CN2CC[C@@H](CNC(=O)C3CCN(c4nc(-c5ccc(Cl)cc5)no4)CC3)C2)C1 (single isomer, unassigned) [Compound 470] | ++ (++ ≥5 and <6)
7 | COc1ccc(-c2noc(N3CCC(C(=O)NCC4CCN(Cc5cscn5)C4)CC3)n2)cc1 (stereo not shown) [Compound 360, 1-(3-(4-methoxyphenyl)-1,2,4-oxadiazol-5-yl)-N-((1-(thiazol-4-ylmethyl)pyrrolidin-3-yl)methyl)piperidine-4-carboxamide] | + (+ >3 and <5)
8 | C#CCCC1(CCOc2cc(-c3noc(N4CCC(C(=O)NCC5CCN(Cc6ccc(C)cc6)C5)CC4)n3)ccc2OC)N=N1 (stereo not shown) [Compound 344, 1-(3-(3-(2-(3-(but-3-yn-1-yl)-3H-diazirin-3-yl)ethoxy)-4-methoxyphenyl)-1,2,4-oxadiazol-5-yl)-N-((1-(4-methylbenzyl)pyrrolidin-3-yl)methyl)piperidine-4-carboxamide] | ++ (++ ≥5 and <6)
9 | COc1ccc(-c2noc(N3CCC(C(=O)NCC4CCN(C[C@@H]5CCCN5C)C4)CC3)n2)cc1 (stereo partly drawn) [Compound 369, 1-(3-(4-methoxyphenyl)-1,2,4-oxadiazol-5-yl)-N-((1-(((S)-1-methylpyrrolidin-2-yl)methyl)pyrrolidin-3-yl)methyl)piperidine-4-carboxamide] | + (+ >3 and <5)
10 | COc1ccc(-c2noc(N3CCC(C(=O)NCC4(N(C)C)Cc5ccccc5C4)CC3)n2)cc1 [Compound 296, N-((2-(dimethylamino)-2,3-dihydro-1H-inden-2-yl)methyl)-1-(3-(4-methoxyphenyl)-1,2,4-oxadiazol-5-yl)piperidine-4-carboxamide] | + (+ >3 and <5)
11 | COc1ccc(-c2noc(N3CCC(C(=O)NCCc4ccccc4)CC3)n2)cc1 [Compound 128, 1-(3-(4-methoxyphenyl)-1,2,4-oxadiazol-5-yl)-N-phenethylpiperidine-4-carboxamide] | + (+ >3 and <5)
12 | COc1ccc(-c2noc(N3CCN(C(=O)N4CCC(OC)CC4)CC3)n2)cc1 [Compound 190, (4-(3-(4-methoxyphenyl)-1,2,4-oxadiazol-5-yl)piperazin-1-yl)(4-methoxypiperidin-1-yl)methanone] | + (+ >3 and <5)
13 | CN1CCC[C@H](CN2CCC(CNC(=O)C3CCN(c4nc(-c5ccc(C#N)cc5)no4)CC3)C2)C1 (stereo partly drawn) [Compound 467, 1-(3-(4-cyanophenyl)-1,2,4-oxadiazol-5-yl)-N-((1-(((S)-1-methylpiperidin-3-yl)methyl)pyrrolidin-3-yl)methyl)piperidine-4-carboxamide] | + (+ >3 and <5)
14 | COc1ccc(-c2noc(N3CCC(C(=O)NCC4CCN(C(C)C5CCOCC5)C4)CC3)n2)cc1 (stereo not shown) [Compound 416, 1-(3-(4-methoxyphenyl)-1,2,4-oxadiazol-5-yl)-N-((1-(1-(tetrahydro-2H-pyran-4-yl)ethyl)pyrrolidin-3-yl)methyl)piperidine-4-carboxamide] | + (+ >3 and <5)
15 | COc1ccc(-c2noc(N3CCN(C(=O)NCC4CCN(CC5CCCCC5)C4)CC3)n2)cc1 (stereo not shown) [Compound 421, N-((1-(cyclohexylmethyl)pyrrolidin-3-yl)methyl)-4-(3-(4-methoxyphenyl)-1,2,4-oxadiazol-5-yl)piperazine-1-carboxamide] | +++ (+++ ≥6)
16 | COc1ccc(-c2noc(N3CCC(C(=O)NCC4CCN(Cc5ccc[nH]5)C4)CC3)n2)cc1 (stereo not shown) [Compound 389, N-((1-((1H-pyrrol-2-yl)methyl)pyrrolidin-3-yl)methyl)-1-(3-(4-methoxyphenyl)-1,2,4-oxadiazol-5-yl)piperidine-4-carboxamide] | ++ (++ ≥5 and <6)

Row | SMILES | Myc Efficacy (−LogEC50)
17 | CCc1ccc(CNC(=O)C2CCN(c3nc(-c4ccc(Cl)cc4)no3)CC2)cc1 [Compound 103, 1-(3-(4-chlorophenyl)-1,2,4-oxadiazol-5-yl)-N-(4-ethylbenzyl)piperidine-4-carboxamide] | + (+ >3 and <5)
18 | C#CCCC1(CCN2CCC(CNC(=O)C3CCN(c4nc(-c5ccc(OC)cc5)no4)CC3)C2)N=N1 (stereo not shown) [Compound 286, N-((1-(2-(3-(but-3-yn-1-yl)-3H-diazirin-3-yl)ethyl)pyrrolidin-3-yl)methyl)-1-(3-(4-methoxyphenyl)-1,2,4-oxadiazol-5-yl)piperidine-4-carboxamide] | ++ (++ ≥5 and <6)
19 | COc1ccc(-c2noc(N3CCN(C(=O)NCCCN4CCC(C)CC4)CC3)n2)cc1 [Compound 208, 4-(3-(4-methoxyphenyl)-1,2,4-oxadiazol-5-yl)-N-(3-(4-methylpiperidin-1-yl)propyl)piperazine-1-carboxamide] | ++ (++ ≥5 and <6)
20 | COc1ccc(-c2noc(N3CCN(C(=O)Nc4ccc(Cl)cc4)CC3)n2)cc1 [Compound 193, N-(4-chlorophenyl)-4-(3-(4-methoxyphenyl)-1,2,4-oxadiazol-5-yl)piperazine-1-carboxamide] | ++ (++ ≥5 and <6)
21 | O=C(C1CCN(c2nc(-c3ccccc3)no2)CC1)N1CCN(Cc2ccccc2)CC1 [Compound 131, (4-benzylpiperazin-1-yl)(1-(3-phenyl-1,2,4-oxadiazol-5-yl)piperidin-4-yl)methanone] | + (+ >3 and <5)
22 | COc1ccc(-c2n[nH]c(N3CCC(C(=O)NCC4CCN(Cc5ccc(C)cc5)C4)CC3)n2)cc1 (stereo not shown) [Compound 169, 1-(3-(4-methoxyphenyl)-1H-1,2,4-triazol-5-yl)-N-((1-(4-methylbenzyl)pyrrolidin-3-yl)methyl)piperidine-4-carboxamide] | + (+ >3 and <5)
23 | COc1ccc(-c2noc(N3CCC(C(=O)NC4CCC(F)(F)C4)CC3)n2)cc1 (stereo not shown) [Compound 275, N-(3,3-difluorocyclopentyl)-1-(3-(4-methoxyphenyl)-1,2,4-oxadiazol-5-yl)piperidine-4-carboxamide] | + (+ >3 and <5)
24 | COc1ccc(-c2cccc(N3CCC(C(=O)NCC4CCN(Cc5ccc(C)cc5)C4)CC3)n2)cc1 (stereo not shown) [Compound 157, 1-(6-(4-methoxyphenyl)pyridin-2-yl)-N-((1-(4-methylbenzyl)pyrrolidin-3-yl)methyl)piperidine-4-carboxamide] | ++ (++ ≥5 and <6)
25 | COc1ccc(-c2noc(N3CCC(C(=O)NCC4CCN(Cc5ccc(O)cc5)C4)CC3)n2)cc1 (stereo not shown) [Compound 339, N-((1-(4-hydroxybenzyl)pyrrolidin-3-yl)methyl)-1-(3-(4-methoxyphenyl)-1,2,4-oxadiazol-5-yl)piperidine-4-carboxamide] | ++ (++ ≥5 and <6)
26 | COc1ccc(-c2noc(N3CCC(C(=O)NCC4CCN(Cc5cncc(C)c5)C4)CC3)n2)cc1 (stereo not shown) [Compound 365, 1-(3-(4-methoxyphenyl)-1,2,4-oxadiazol-5-yl)-N-((1-((5-methylpyridin-3-yl)methyl)pyrrolidin-3-yl)methyl)piperidine-4-carboxamide] | ++ (++ ≥5 and <6)
27 | COc1ccc(-c2noc(N3CCC(C(=O)NC4CC(O)C4(C)C)CC3)n2)cc1 (stereo not shown) [Compound 294, N-(3-hydroxy-2,2-dimethylcyclobutyl)-1-(3-(4-methoxyphenyl)-1,2,4-oxadiazol-5-yl)piperidine-4-carboxamide] | + (+ >3 and <5)
28 | COc1ccc(-c2noc(N3CCC(C(=O)Nc4ccc5c(c4)CCN5C)CC3)n2)cc1 [Compound 403, 1-(3-(4-methoxyphenyl)-1,2,4-oxadiazol-5-yl)-N-(1-methylindolin-5-yl)piperidine-4-carboxamide] | + (+ >3 and <5)
29 | COc1ccc(-c2noc(N3CCC(C(=O)NCC4CCN(CC5CCCCC5)C4)CC3)n2)cc1 (stereo not shown) [Compound 338, N-((1-(cyclohexylmethyl)pyrrolidin-3-yl)methyl)-1-(3-(4-methoxyphenyl)-1,2,4-oxadiazol-5-yl)piperidine-4-carboxamide] | ++ (++ ≥5 and <6)
30 | COc1ccc(-c2noc(N3CCN(C(=O)C4CCCN(CC(C)C)C4)CC3)n2)cc1 (stereo not shown) [Compound 227, (1-isobutylpiperidin-3-yl)(4-(3-(4-methoxyphenyl)-1,2,4-oxadiazol-5-yl)piperazin-1-yl)methanone] | + (+ >3 and <5)
31 | COc1ccc(-c2noc(N3CCN(C(=O)NCC4CCN(C)C4)CC3)n2)cc1 (stereo not shown) [Compound 206, 4-(3-(4-methoxyphenyl)-1,2,4-oxadiazol-5-yl)-N-((1-methylpyrrolidin-3-yl)methyl)piperazine-1-carboxamide] | + (+ >3 and <5)
